This passage reports Activity and Ki results from ChEMBL document CHEMBL1131556, “The discovery of orally available thrombin inhibitors: studies towards the optimisation of CGH1668” (Bioorg Med Chem Lett, 1998).

pKi: −log10 of the molar value.

A short description of assay [1]: Activated partial thromboplastin time (APTT) was determined by the influence on doubling of a human clotting time assay. The class given is functional.
The target of assay [2] is Prothrombin (Homo sapiens, UniProt P00734). Description: In vitro binding affinity for human thrombin.

In turn, `Nc1ccc(C[C@H](NS(=O)(=O)c2cnccc2N[C@@H](Cc2ccccc2)CN2CCOCC2)C(=O)N2CCC(CCF)CC2)cc1` returned an Activity in assay [1] of 2.9 µM. The compound also had a pKi in assay [2] of 7.66.

Compound `CCN(CC)C[C@H](Cc1ccccc1)Nc1ccncc1S(=O)(=O)N[C@@H](Cc1ccc(N)cc1)C(=O)N1CCC(CCF)CC1` returned an Activity in assay [1] of 3.56 µM. The negative logarithm of the Ki (pKi) in assay [2] is 7.35.

With `COc1ccc(C[C@H](NS(=O)(=O)c2cnccc2N[C@H](CO)Cc2ccccc2)C(=O)N2CCC(CCF)CC2)cc1`, in assay [1], the Activity came out at 8.1 µM. In assay [2], this compound showed a pKi of 7.44.

Consider `CCC1CCN(C(=O)[C@H](Cc2ccc(N)cc2)NS(=O)(=O)c2cnccc2N[C@H](CO)Cc2ccccc2)CC1`, for which the Activity in assay [1] came out at 5.5 µM. In assay [2], this compound showed a pKi of 6.96.

Consider `COCCN(CCOC)C[C@H](Cc1ccccc1)Nc1ccncc1S(=O)(=O)N[C@@H](Cc1ccc(N)cc1)C(=O)N1CCC(CCF)CC1`, for which the Activity in assay [1] stood at 3.7 µM. The pKi in assay [2] was 7.72.

For the compound `O=C([C@H](Cc1ccccc1)NS(=O)(=O)c1cnccc1N[C@H](CO)Cc1ccccc1)N1CCC(CCF)CC1`, in assay [1], the Activity was found to be 11.5 µM. Moreover, in assay [2], the pKi is 7.00.

In assay [1], `Nc1ccc(C[C@H](NS(=O)(=O)c2cnccc2N[C@H](CO)Cc2ccccc2)C(=O)N2CCC(CCO)CC2)cc1` had an Activity of 7.4 µM. This compound showed a negative-log Ki (pKi) in assay [2] of 6.20.

`Nc1ccc(C[C@H](NS(=O)(=O)c2cnccc2N[C@H](CO)CC2CCCCC2)C(=O)N2CCC(CCF)CC2)cc1` came in with an Activity in assay [1] of 2.6 µM. Moreover, the pKi in assay [2] is 7.74.

Compound `C[C@H](Cc1ccccc1)Nc1ccncc1S(=O)(=O)N[C@@H](Cc1ccc(N)cc1)C(=O)N1CCC(CCF)CC1` gave an Activity in assay [1] of 7.1 µM. In assay [2], this compound showed a pKi of 7.74.

Take `O=C([C@H](Cc1ccc(F)cc1)NS(=O)(=O)c1cnccc1N[C@H](CO)Cc1ccccc1)N1CCC(CCF)CC1`: the Activity in assay [1] is 11.7 µM. In assay [2], this compound gave a pKi of 7.19.

For `O=C([C@H](Cc1ccc(O)cc1)NS(=O)(=O)c1cnccc1N[C@H](CO)Cc1ccccc1)N1CCC(CCF)CC1`, the Activity in assay [1] was determined as 1.91 µM. The pKi in assay [2] was 7.39.

In turn, `CNC[C@H](Cc1ccccc1)Nc1ccncc1S(=O)(=O)N[C@@H](Cc1ccc(N)cc1)C(=O)N1CCC(CCF)CC1` returned an Activity in assay [1] of 2.4 µM. For the same compound, the pKi in assay [2] is 7.46.

`Nc1ccc(C[C@H](NS(=O)(=O)c2cnccc2N[C@H](COCCO)Cc2ccccc2)C(=O)N2CCC(CCF)CC2)cc1` showed an Activity in assay [1] of 2.5 µM. In assay [2], this compound gave a pKi of 7.31.

Compound `CN(C)C[C@H](Cc1ccccc1)Nc1ccncc1S(=O)(=O)N[C@@H](Cc1ccc(N)cc1)C(=O)N1CCC(CCF)CC1` returned an Activity in assay [1] of 3.4 µM. This compound also gave a negative-log Ki (pKi) in assay [2] of 7.62.

`Nc1ccc(C[C@H](NS(=O)(=O)c2cnccc2N[C@H](CNCCO)Cc2ccccc2)C(=O)N2CCC(CCF)CC2)cc1` displayed an Activity in assay [1] of 2 µM. Besides, in assay [2], the negative-log Ki (pKi) is 7.14.

On to `COc1ccc(C[C@@H](CO)Nc2ccncc2S(=O)(=O)N[C@@H](Cc2ccc(N)cc2)C(=O)N2CCC(CCF)CC2)cc1`, for which the Activity in assay [1] stood at 2.9 µM. The pKi in assay [2] was 7.72.

Consider `Nc1ccc(C[C@H](NS(=O)(=O)c2cnccc2N[C@H](CO)Cc2ccccc2)C(=O)N2CCC(CCF)CC2)cc1`, for which the Activity in assay [1] was determined as 2.5 µM. For the same compound, the negative-log Ki (pKi) in assay [2] is 7.41.

`Nc1ccc(C[C@H](NS(=O)(=O)c2cnccc2N[C@H](CO)Cc2ccccc2)C(=O)N2CCC(CCCl)CC2)cc1`: in assay [1], the Activity worked out at 4.4 µM. In assay [2], this compound gave a pKi of 7.57.

In assay [1], `CC(=O)N1CCN(C[C@H](Cc2ccccc2)Nc2ccncc2S(=O)(=O)N[C@@H](Cc2ccc(N)cc2)C(=O)N2CCC(CCF)CC2)CC1` yielded an Activity of 2.4 µM. Further, the pKi in assay [2] was 7.62.

The compound `CCCCNC[C@H](Cc1ccccc1)Nc1ccncc1S(=O)(=O)N[C@@H](Cc1ccc(N)cc1)C(=O)N1CCC(CCF)CC1` returned an Activity in assay [1] of 5.1 µM. In addition, the negative-log Ki (pKi) in assay [2] is 7.37.

In assay [1], `Nc1ccc(C[C@H](NS(=O)(=O)c2cnccc2N[C@@H](Cc2ccccc2)CN2CCCC2)C(=O)N2CCC(CCF)CC2)cc1` yielded an Activity of 3.4 µM. In assay [2], this compound gave a pKi of 7.32.

`Nc1ccc(C[C@H](NS(=O)(=O)c2cnccc2N[C@@H](Cc2ccccc2)CN2CCC(O)CC2)C(=O)N2CCC(CCF)CC2)cc1` had an Activity in assay [1] of 1.73 µM. The compound further had a negative-log Ki (pKi) in assay [2] of 7.72.

`CNC[C@H](CC1CCCCC1)Nc1ccncc1S(=O)(=O)N[C@@H](Cc1ccc(N)cc1)C(=O)N1CCC(CCF)CC1` came in with an Activity in assay [1] of 2.8 µM. This compound showed a pKi in assay [2] of 7.48.

In assay [1], `CNc1ccc(C[C@H](NS(=O)(=O)c2cnccc2N[C@H](CO)Cc2ccccc2)C(=O)N2CCC(CCF)CC2)cc1` came in with an Activity of 4.1 µM. The compound further had a pKi in assay [2] of 7.92.

Take `COc1ccc(C[C@@H](C)Nc2ccncc2S(=O)(=O)N[C@@H](Cc2ccc(N)cc2)C(=O)N2CCC(CCF)CC2)cc1`: the Activity in assay [1] came out at 9 µM. Moreover, in assay [2], the negative logarithm of the Ki (pKi) was 7.82.

As for `COc1ccc(C[C@@H](CO)Nc2ccncc2S(=O)(=O)N[C@@H](Cc2ccc(N)cc2)C(=O)N2CCC(CCF)CC2)cc1OC`, the Activity in assay [1] amounted to 2.5 µM. The compound also showed a negative logarithm of the Ki (pKi) in assay [2] of 7.31.

In assay [1], `Nc1ccc(C[C@H](NS(=O)(=O)c2cnccc2N[C@@H](Cc2ccccc2)CN2CCNC(=O)C2)C(=O)N2CCC(CCF)CC2)cc1` showed an Activity of 2.43 µM. For the same compound, the pKi in assay [2] was 7.05.

In assay [1], `CCNC[C@H](Cc1ccccc1)Nc1ccncc1S(=O)(=O)N[C@@H](Cc1ccc(N)cc1)C(=O)N1CCC(CCF)CC1` had an Activity of 3.2 µM. In assay [2], the pKi was 7.00.

In assay [1], `Nc1ccc(C[C@H](NS(=O)(=O)c2cnccc2N[C@@H](Cc2ccccc2)CN2CCCCC2)C(=O)N2CCC(CCF)CC2)cc1` registered an Activity of 6.1 µM. The same compound had a negative-log Ki (pKi) in assay [2] of 7.60.

`CCCNC[C@H](Cc1ccccc1)Nc1ccncc1S(=O)(=O)N[C@@H](Cc1ccc(N)cc1)C(=O)N1CCC(CCF)CC1` gave an Activity in assay [1] of 3.3 µM. Moreover, the pKi in assay [2] is 7.33.
